target: T1, human androgen receptor (Homo sapiens, UniProt P10275); assay: Androgen receptor transactivation assay, antiandrogenic activity: inhibition of transactivation in the presence of 1 nM DHT (CHO-AR-pMMTV-LUC cells; Table 4); format: cell-based; details: antiandrogenic activity, in the presence of 1 nM DHT; read-out: ant EC50
T1 construct: expressed in transfected cells; host or cells: Chinese hamster ovary (CHO) cells, cell line CHO-AR-pMMTV-LUC 1G12-A5-CA
T1 sequence (P10275 1-920): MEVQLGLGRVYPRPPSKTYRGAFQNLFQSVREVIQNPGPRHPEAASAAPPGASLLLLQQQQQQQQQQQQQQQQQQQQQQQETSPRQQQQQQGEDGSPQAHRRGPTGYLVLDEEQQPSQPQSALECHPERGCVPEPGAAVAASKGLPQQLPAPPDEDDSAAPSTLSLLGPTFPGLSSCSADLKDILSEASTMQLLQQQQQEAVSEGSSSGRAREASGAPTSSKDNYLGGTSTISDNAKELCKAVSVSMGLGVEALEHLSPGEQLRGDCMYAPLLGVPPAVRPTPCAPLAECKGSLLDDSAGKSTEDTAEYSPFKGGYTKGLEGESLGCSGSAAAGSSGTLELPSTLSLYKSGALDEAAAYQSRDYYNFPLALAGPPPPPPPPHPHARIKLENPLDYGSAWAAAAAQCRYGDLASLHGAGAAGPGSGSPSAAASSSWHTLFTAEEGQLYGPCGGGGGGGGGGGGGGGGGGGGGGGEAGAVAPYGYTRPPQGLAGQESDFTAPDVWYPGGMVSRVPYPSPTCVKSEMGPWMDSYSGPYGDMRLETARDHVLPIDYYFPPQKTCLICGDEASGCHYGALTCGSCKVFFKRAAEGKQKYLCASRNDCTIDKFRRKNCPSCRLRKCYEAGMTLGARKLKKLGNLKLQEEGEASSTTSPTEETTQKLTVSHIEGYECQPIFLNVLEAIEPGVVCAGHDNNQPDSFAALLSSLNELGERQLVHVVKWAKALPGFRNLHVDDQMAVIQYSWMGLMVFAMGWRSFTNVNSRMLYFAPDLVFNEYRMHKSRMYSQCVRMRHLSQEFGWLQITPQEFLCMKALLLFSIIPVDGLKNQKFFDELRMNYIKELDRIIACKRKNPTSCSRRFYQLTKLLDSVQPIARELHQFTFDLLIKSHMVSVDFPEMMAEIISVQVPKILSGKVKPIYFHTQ
Description: Compounds were tested for their Androgen Receptor activity in a transactivation assay and in a binding assay.
The (anti-)androgenic activity of test compounds (EC50 and intrinsic activity) was determined in an in vitro bioassay of Chinese hamster ovary (CHO) cells stably transfected with the human androgen receptor expression plasmid and a reporter plasmid in which the MMTV-promoter is linked to the luciferase reporter gene. The cell-line CHO-AR-pMMTV-LUC 1G12-AS-CA is described in Schoonen et al. (2000), Journal of Steroid Biochemistry and Molecular Biology 74(4):213-222. The antiandrogenic activity of a test compound was determined by the inhibition of the transactivation via the androgen receptor of the enzyme luciferase in the presence of 1 nM DHT (5 α-dihydrotestosterone, 17β-hydroxy-5α-androstan-3-one). Intrinsic activity of antiandrogenic activity was determined in the presence of the reference antiandrogen 2-Hydroxy-2-methyl-N-(4-nitro-3-trifluoromethyl-phenyl)-propionamide (Hydroxyflutamide), and set at 100%. For androgenic activity, maximal intrinsic activity in the presence of 100 nM DHT was set at 100%. Table 4 Androgen receptor activity

| SMILES | EC50 [µM] |
| --- | --- |
| O=[N+]([O-])c1ccccc1Sc1cn(Cc2cc(F)cc(F)c2)c2cc(O)ccc12 [Compound 61, 1-(3,5-Difluoro-benzyl)-3-(2-nitro-phenylsulfanyl)-1H-indol-6-ol] | > 10 |
| COc1ccc2c(Sc3ccccc3[N+](=O)[O-])cn(Cc3c(C)noc3C)c2c1 [Compound 80] | > 10 |

same assay, conditions: in the presence of 1 nM DHT; intrinsic activity relative to reference antiandrogen Hydroxyflutamide (set at 100%); read-out: ant efficacy

| SMILES | Emax [%] |
| --- | --- |
| O=[N+]([O-])c1ccccc1Sc1cn(Cc2cc(F)cc(F)c2)c2ccc(F)cc12 [Compound 53] | < 20 |
| O=[N+]([O-])c1ccccc1Sc1cn(Cc2cc(F)cc(F)c2)c2cccc(Cl)c12 [Compound 54] | < 20 |
| Cc1cccc2c1c(Sc1ccccc1[N+](=O)[O-])cn2Cc1cc(F)cc(F)c1 [Compound 55] | < 20 |
| Nc1ccc2c(Sc3ccccc3[N+](=O)[O-])cn(Cc3cc(F)cc(F)c3)c2c1 [Compound 57, 1-(3,5-Difluoro-benzyl)-3-(2-nitro-phenylsulfanyl)-1H-indol-6-ylamine] | < 20 |
| CC(=O)Nc1ccc2c(Sc3ccccc3[N+](=O)[O-])cn(Cc3cc(F)cc(F)c3)c2c1 [Compound 58, N-[1-(3,5-Difluoro-benzyl)-3-(2-nitro-phenylsulfanyl)-1H-indol-6-yl]-acetamide] | < 20 |
| O=C(Nc1ccc2c(Sc3ccccc3[N+](=O)[O-])cn(Cc3cc(F)cc(F)c3)c2c1)C(F)(F)F [Compound 59, N-[1-(3,5-Difluoro-benzyl)-3-(2-nitro-phenylsulfanyl)-1H-indol-6-yl]-2,2,2-trifluoroacetamide] | < 20 |
| O=[N+]([O-])c1ccccc1Sc1cn(Cc2cc(F)cc(F)c2)c2cc(O)ccc12 [Compound 61, 1-(3,5-Difluoro-benzyl)-3-(2-nitro-phenylsulfanyl)-1H-indol-6-ol] | < 20 |
| COc1ccc2c(S(=O)(=O)c3ccccc3[N+](=O)[O-])cn(Cc3cc(F)cc(F)c3)c2c1 [Compound 62, 1-(3,5-Difluoro-benzyl)-6-methoxy-3-(2-nitro-benzenesulfonyl)-1H-indole] | < 20 |
| COc1ccc2c(Sc3ccccc3[N+](=O)[O-])cn(Cc3cc(F)cc(F)c3)c2c1 [Compound 63, 1-(3,5-Difluoro-benzyl)-6-methoxy-3-(2-nitro-phenylsulfanyl)-1H-indole] | < 20 |
| COc1ccc2c([S+]([O-])c3ccccc3[N+](=O)[O-])cn(Cc3cc(F)cc(F)c3)c2c1 (stereo not shown) [Compound 64, 1-(3,5-Difluoro-benzyl)-6-methoxy-3-(2-nitro-benzenesulfinyl)-1H-indole] | 50 to 80 |
| COc1ccc2c(Sc3ccccn3)cn(Cc3cc(F)cc(F)c3)c2c1 [Compound 65, 1-(3,5-Difluoro-benzyl)-6-methoxy-3-(pyridin-2-ylsulfanyl)-1H-indole] | < 20 |
| COc1ccc2c(Sc3cccc[n+]3[O-])cn(Cc3cc(F)cc(F)c3)c2c1 [Compound 66] | 20 to 50 |
| COc1ccc2c(Sc3ccccc3[N+](=O)[O-])cn(Cc3cccc(Cl)c3)c2c1 [Compound 67] | < 20 |
| COc1ccc2c(Sc3ccccc3[N+](=O)[O-])cn(Cc3cccc(C#N)c3)c2c1 [Compound 68] | < 20 |
| COc1ccc2c(Sc3ccccc3[N+](=O)[O-])cn(Cc3cc(F)cc(C(F)(F)F)c3)c2c1 [Compound 69] | < 20 |
| COc1ccc2c(Sc3ccccc3[N+](=O)[O-])cn(Cc3cc(F)ccc3C(F)(F)F)c2c1 [Compound 70] | < 20 |
| COc1ccc2c(Sc3ccccc3[N+](=O)[O-])cn(Cc3cccc(F)c3)c2c1 [Compound 71] | < 20 |

| SMILES | Emax [%] |
| --- | --- |
| COc1cccc(Cn2cc(Sc3ccccc3[N+](=O)[O-])c3ccc(OC)cc32)c1 [Compound 72] | < 20 |
| COc1ccc2c(Sc3ccccc3[N+](=O)[O-])cn(Cc3cccc(C)c3)c2c1 [Compound 73] | < 20 |
| COc1ccc2c(Sc3ccccc3[N+](=O)[O-])cn(Cc3cccnc3)c2c1 [Compound 75] | < 20 |
| COc1ccc2c(Sc3ccccc3[N+](=O)[O-])cn(Cc3ccc(Cl)c(C(F)(F)F)c3)c2c1 [Compound 76] | < 20 |
| COc1ccc2c(Sc3ccccc3[N+](=O)[O-])cn(Cc3cccc(OC(F)(F)F)c3)c2c1 [Compound 77] | < 20 |
| COc1ccc2c(Sc3ccccc3[N+](=O)[O-])cn(Cc3cccc(C(F)(F)F)c3)c2c1 [Compound 78] | < 20 |
| COc1ccc2c(Sc3ccccc3[N+](=O)[O-])cn(Cc3csc(C)n3)c2c1 [Compound 79] | < 20 |
| COc1ccc2c(Sc3ccccc3[N+](=O)[O-])cn(Cc3c(C)noc3C)c2c1 [Compound 80] | 20 to 50 |
| COc1ccc2c(Sc3ccccc3[N+](=O)[O-])cn(Cc3ccc(Cl)cc3)c2c1 [Compound 81] | 50 to 80 |
| COc1ccc2c(Sc3ccccc3[N+](=O)[O-])cn(Cc3ccc(C#N)cc3)c2c1 [Compound 82] | < 20 |
| COc1ccc2c(Sc3ccccc3[N+](=O)[O-])cn(Cc3ccc(F)cc3)c2c1 [Compound 83] | < 20 |
| COc1ccc(Cn2cc(Sc3ccccc3[N+](=O)[O-])c3ccc(OC)cc32)cc1 [Compound 84] | > 80 |
| COc1ccc2c(Sc3ccccc3[N+](=O)[O-])cn(Cc3ccc(C)cc3)c2c1 [Compound 85] | 20 to 50 |
| COc1ccc2c(Sc3ccccc3[N+](=O)[O-])cn(Cc3cnc(Cl)s3)c2c1 [Compound 87] | < 20 |
| COc1ccc2c(Sc3ccccc3[N+](=O)[O-])cn(Cc3ccc(Cl)s3)c2c1 [Compound 88] | < 20 |
| O=[N+]([O-])c1ccccc1Sc1cn(Cc2ccccc2)c2ccccc12 [Compound 90] | < 20 |
| COc1ccc2c(c1)c(Sc1ccccc1[N+](=O)[O-])cn2Cc1ccccc1 [Compound 91] | > 80 |

same assay, conditions: read-out: ant efficacy, in the presence of 1 nM DHT; intrinsic activity relative to reference antiandrogen Hydroxyflutamide (set at 100%)

| SMILES | Emax [%] |
| --- | --- |
| O=[N+]([O-])c1ccc2c(Sc3ccccc3[N+](=O)[O-])cn(Cc3cc(F)cc(F)c3)c2c1 [Compound 60] | < 20 |
| COc1ccc2c(Sc3ccccc3[N+](=O)[O-])cn(Cc3cccc([N+](=O)[O-])c3)c2c1 [Compound 74] | < 20 |
| COc1ccc2c(Sc3ccccc3[N+](=O)[O-])cn(CC3CCCCC3)c2c1 [Compound 89] | 20 to 50 |

target: T1, human androgen receptor; assay: Androgen receptor transactivation assay, androgenic activity in the presence of 0.1 µmol/l onapristone (CHO-AR-pMMTV-LUC cells; Table 5); format: cell-based; details: maximal intrinsic activity in the presence of 100 nM DHT set at 1.00
Description: The androgenic activity (EC50, potency, and efficacy) of the compounds in Table 5 was determined in an in vitro bioassay of Chinese hamster ovary (CHO) cells stably transfected with the human androgen receptor expression plasmid and a reporter plasmid in which the MMTV promotor is linked to the luciferase reporter gene. The cell line CHO-AR-pMMTV-LUC 1G12-A5-CA is described in Schoonen et al. (J. Steroid Biochem. Molec. Biol. […]; 74: 213-222). The androgen receptor activity of compounds was determined in the presence of 0.1 µmol/l onapristone. The maximal efficacy in the presence of 100 nmol/l DHT was set as 100%. The potencies are expressed as percentage of DHT activity. Table 5 Androgen receptor activity

| SMILES | ago efficacy |
| --- | --- |
| COc1ccc2c(Sc3ccccc3[N+](=O)[O-])cn(Cc3ccncc3)c2c1 [Compound 93] | + (between 0.50 and 0.80) |
| COc1ccc2c(Sc3ccccc3[N+](=O)[O-])cn(Cc3cc(F)c(F)c(F)c3)c2c1 [Compound 94, 6-Methoxy-3-(2-nitro-phenylsulfanyl)-1-(3,4,5-trifluoro-benzyl)-1H indole] | ++ (≥0.80) |
| COc1ccc2c(Sc3ccccc3[N+](=O)[O-])cn(Cc3cc(F)cc(F)c3F)c2c1 [Compound 95, 6-Methoxy-3-(2-nitro-phenylsulfanyl)-1-(2,3,5-trifluoro-benzyl)-1H-indole] | ++ (≥0.80) |
| COc1ccc2c(Sc3ccccc3[N+](=O)[O-])cn(Cc3ccc(Cl)nc3)c2c1 [Compound 96, 1-(6-Chloro-pyridin-3-ylmethyl)-6-methoxy-3-(2-nitro-phenylsulfanyl)-1H-indole] | ± (between 0.20 and 0.50) |
| O=C(CF)Nc1ccc2c(Sc3ccccc3[N+](=O)[O-])cn(Cc3cc(F)cc(F)c3)c2c1 [Compound 97, N-[1-(3,5-Difluoro-benzyl)-3-(2-nitro-phenylsulfanyl)-1H-indol-6-yl]-2-fluoro-acetamide] | ++ (≥0.80) |

same assay, conditions: potency expressed as percentage of DHT activity

| SMILES | ago potency |
| --- | --- |
| COc1ccc2c(Sc3ccccc3[N+](=O)[O-])cn(Cc3ccncc3)c2c1 [Compound 93] | ± (between 0.1 % and 1%) |
| COc1ccc2c(Sc3ccccc3[N+](=O)[O-])cn(Cc3cc(F)c(F)c(F)c3)c2c1 [Compound 94, 6-Methoxy-3-(2-nitro-phenylsulfanyl)-1-(3,4,5-trifluoro-benzyl)-1H indole] | + (between 1% and 5%) |
| COc1ccc2c(Sc3ccccc3[N+](=O)[O-])cn(Cc3cc(F)cc(F)c3F)c2c1 [Compound 95, 6-Methoxy-3-(2-nitro-phenylsulfanyl)-1-(2,3,5-trifluoro-benzyl)-1H-indole] | ± (between 0.1 % and 1%) |
| COc1ccc2c(Sc3ccccc3[N+](=O)[O-])cn(Cc3ccc(Cl)nc3)c2c1 [Compound 96, 1-(6-Chloro-pyridin-3-ylmethyl)-6-methoxy-3-(2-nitro-phenylsulfanyl)-1H-indole] | ± (between 0.1 % and 1%) |
| O=C(CF)Nc1ccc2c(Sc3ccccc3[N+](=O)[O-])cn(Cc3cc(F)cc(F)c3)c2c1 [Compound 97, N-[1-(3,5-Difluoro-benzyl)-3-(2-nitro-phenylsulfanyl)-1H-indol-6-yl]-2-fluoro-acetamide] | + (between 1% and 5%) |

Reference: patent publication EP1585727B1, “INDOLES USEFUL IN THE TREATMENT OF ANDROGEN-RECEPTOR RELATED DISEASES” (priority 2002, dated 2004)
